From ChEMBL document CHEMBL3588845, “Protozoan Parasite Growth Inhibitors Discovered by Cross-Screening Yield Potent Scaffolds for Lead Discovery” (J Med Chem, 2015)

What was measured:
Trypanosoma brucei = assay: Antiparasite activity against Trypanosoma brucei 427 assessed as growth inhibition incubated for 48 hrs by PrestoBlue based fluorescence assay; type: functional, organism-based; settings: Trypanosoma brucei, 427, 48 h
[1] = Toxicity against human HepG2 cells incubated for 48 hrs by MTT assay; type: cell-based; settings: read-out: TC50
Plasmodium falciparum [2] = assay: Antiparasite activity against drug resistant Plasmodium falciparum C235 assessed as growth inhibition incubated for 72 hrs by SYBR green fluorescence assay; type: functional, organism-based; settings: C235, 72 h
Leishmania major [3] = assay: Antiparasite activity against Leishmania major promastigotes assessed as growth inhibition incubated for 44 hrs by alamar blue dye based fluorescence assay; type: functional, organism-based
Trypanosoma cruzi = assay: Antiparasite activity against Trypanosoma cruzi Tulahuen expressing beta-galactosidase assessed as growth inhibition incubated for 96 hrs by CPRG dye based assay; type: functional, organism-based
Plasmodium falciparum [4] = assay: Antiparasite activity against drug resistant Plasmodium falciparum W2 assessed as growth inhibition incubated for 72 hrs by SYBR green fluorescence assay; type: functional, organism-based; settings: W2, 72 h
Leishmania major [5] = assay: Antiparasite activity against luciferase-expressing Leishmania major amastigotes isolated from infected in mouse RAW264.7 cells assessed as growth inhibition incubated for 96 hrs by luciferase reporter gene assay; type: functional, organism-based; settings: RAW264.7, 96 h
Plasmodium falciparum [6] = assay: Antiparasite activity against Plasmodium falciparum D6 assessed as growth inhibition incubated for 72 hrs by SYBR green fluorescence assay; type: functional, organism-based; settings: D6, 72 h

| Structure (SMILES) | EC50 (Trypanosoma brucei) | CC50 at 48 h [1] | EC50 (Plasmodium falciparum [2]) | EC50 (Leishmania major [3]) | EC50 (Trypanosoma cruzi) | EC50 (Plasmodium falciparum [4]) | EC50 (Leishmania major [5]) | EC50 (Plasmodium falciparum [6]) |
| --- | --- | --- | --- | --- | --- | --- | --- | --- |
| CN1CCN(S(=O)(=O)c2ccc(-c3ccc4ccnc(Nc5ccc(OCc6cccc(F)c6)c(Cl)c5)c4c3)cc2)CC1 | 1800 nM | > 15000 nM | 89 nM | > 15000 nM | > 50000 nM | 200 nM | > 15000 nM | 40 nM |
| CN1CCN(S(=O)(=O)c2ccc(-c3ccc4nccc(Nc5ccc(OCc6cccc(F)c6)c(Cl)c5)c4c3)cc2)CC1 | 460 nM | 6400 nM | > 16000 nM | 600 nM | 5300 nM | > 16000 nM | 2000 nM | > 16000 nM |
| Fc1cccc(COc2ccc(Nc3nncc4cc(-c5cccc(N6CCOCC6)c5)ccc34)cc2Cl)c1 | 1400 nM | > 15000 nM | 340 nM | > 15000 nM | > 50000 nM | 620 nM | 2200 nM | 240 nM |
| CN1CCN(S(=O)(=O)c2ccc(-c3ccc4nncc(Nc5ccc(OCc6cccc(F)c6)c(Cl)c5)c4c3)cc2)CC1 | 980 nM | > 15000 nM | 140 nM | > 15000 nM | > 50000 nM | 290 nM | 1900 nM | 130 nM |
| CN1CCCN(S(=O)(=O)c2ccc(-c3ccc4nncc(Nc5ccc(OCc6cccc(F)c6)c(Cl)c5)c4c3)cc2)CC1 | 580 nM | 7300 nM | 19 nM | 4100 nM | 2200 nM | 63 nM | 1060 nM | 27 nM |
| O=S(=O)(c1ccc(-c2ccc3c(Nc4ccc(OCc5ccccc5)c(Cl)c4)nccc3c2)cc1)N1CCOCC1 | 91 nM | > 5000 nM | 3400 nM | > 15000 nM | > 50000 nM | 3400 nM | > 3000 nM | 3400 nM |
| CN1CCCN(S(=O)(=O)c2ccc(-c3ccc4c(Nc5ccc(OCc6cccc(F)c6)c(Cl)c5)nncc4c3)cc2)CC1 | 510 nM | 3400 nM | 45 nM | 410 nM | 1300 nM | 64 nM | 1100 nM | 29 nM |
| CN1CCCN(S(=O)(=O)c2ccc(-c3ccc4ncc(C#N)c(Nc5ccc(OCc6ccccc6)c(Cl)c5)c4c3)cc2)CC1 | 430 nM | 13000 nM | 58 nM | 1600 nM | 950 nM | 84 nM | 2300 nM | 58 nM |
| O=S(=O)(c1ccc(-c2ccc3ccnc(Nc4ccc(OCc5ccccc5)c(Cl)c4)c3c2)cc1)N1CCOCC1 | > 2500 nM | > 25000 nM | 4000 nM | > 15000 nM | > 50000 nM | 5500 nM | > 15000 nM | 870 nM |
| Fc1cccc(COc2ccc(Nc3cnnc4cc(-c5cccc(N6CCOCC6)c5)ccc34)cc2Cl)c1 | 890 nM | 11000 nM | 410 nM | 9800 nM | 45000 nM | 230 nM | > 15000 nM | 200 nM |
| CN1CCCN(S(=O)(=O)c2ccc(-c3ccc4cnnc(Nc5ccc(OCc6cccc(F)c6)c(Cl)c5)c4c3)cc2)CC1 | 620 nM | 14000 nM | 180 nM | > 15000 nM | 17000 nM | 250 nM | 5600 nM | 94 nM |
| O=S(=O)(c1ccc(-c2ccc3c(Nc4ccc(OCc5ccccc5)c(Cl)c4)ccnc3c2)cc1)N1CCOCC1 | 240 nM | > 3000 nM | 18 nM | > 1500 nM | 3500 nM | 44 nM | > 1500 nM | 16 nM |
| CN1CCN(S(=O)(=O)c2ccc(-c3ccc4c(Nc5ccc(OCc6cccc(F)c6)c(Cl)c5)nccc4c3)cc2)CC1 | 100 nM | > 15000 nM | 180 nM | 2700 nM | > 50000 nM | 360 nM | > 15000 nM | 110 nM |
